Results reported in patent publication US8906904B2, “Alkoxy pyrazoles as soluble guanylate cyclase activators” (Boehringer Ingelheim International GmbH, priority 2012, dated 2014).
≈ marks a conversion by molar mass, not a printed value.

Experiment: Assessment of solubility (McIlvaine buffers, 24 h shake, UPLC-UV)
Type: physicochemical
Conditions: kinetic from dmso stock
Method in brief: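 Compounds from 10 mM DMSO stocks were shaken for 24 h at room temperature in McIlvaine buffers at pH 2.2, 4.5 and 6.8 (2.5% v/v DMSO final), then filtered. Filtrates were quantified by UPLC-UV at 254 nm against a 50:50 acetonitrile/water reference assumed fully dissolved, as a single determination.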

SMILES | solubility at 24 h (pH 2.2, aqueous buffer) [µg/mL] | solubility at 24 h (pH 4.5, aqueous buffer) [µg/mL] | solubility at 24 h (pH 6.8, aqueous buffer) [µg/mL]
COCC(C)N1CCc2cc(COc3c(C)cccc3-c3cccc(-n4ncc(C(=O)O)c4OC)n3)cc(C)c2C1 (stereo not drawn) [Compound 244] | 120 (≈ 216 µM) | 99 (≈ 178 µM) | 98 (≈ 176 µM)
CCOc1c(C(=O)O)cnn1-c1cccc(-c2cccc(C)c2OCc2cc(C)c3c(c2)CCN(CC2(C)COC2)C3)n1 [Compound 200] | 100 (≈ 172 µM) | 73 (≈ 125 µM) | 73 (≈ 125 µM)
COc1c(C(=O)O)cnn1-c1cccc(-c2cccc(C)c2OCc2cc(F)c3c(c2)CCN(C[C@H]2CCCCO2)C3)n1 [Compound 229] | 100 (≈ 170 µM) | 81 (≈ 138 µM) | 73 (≈ 124 µM)
COc1c(C(=O)O)cnn1-c1cccc(-c2cccc(C)c2OCc2ccc3c(c2F)CCN(C[C@H]2COCCO2)C3)n1 [Compound 234] | 120 (≈ 204 µM) | 97 (≈ 165 µM) | 91 (≈ 155 µM)
COc1c(C(=O)O)cnn1-c1cccc(-c2cccc(C)c2OCc2ccc3c(c2)CCN(CC2CCC2)C3)n1 [Compound 25] | 91 (≈ 169 µM) | 38 (≈ 70.5 µM) | 39 (≈ 72.4 µM)
COc1c(C(=O)O)cnn1-c1cccc(-c2cccc(C)c2OCc2ccc3c(c2C)CCN(C[C@@H]2CCCO2)CC3)n1 [Compound 223] | 81 (≈ 139 µM) | 68 (≈ 117 µM) | 69 (≈ 118 µM)
COc1c(C(=O)O)cnn1-c1cccc(-c2cccc(C)c2OCc2ccc3c(c2)C(C)(C)CN(CC2COCCO2)C3)n1 (stereo not drawn) [Compound 219] | 110 (≈ 184 µM) | 76 (≈ 127 µM) | 74 (≈ 124 µM)
CCOc1c(C(=O)O)cnn1-c1cccc(-c2cccc(C)c2OCc2cc(C)c3c(c2)CCN(CC2COCCO2)C3)n1 (stereo not drawn) [Compound 243] | 100 (≈ 167 µM) | 82 (≈ 137 µM) | 81 (≈ 135 µM)
COc1c(C(=O)O)cnn1-c1cccc(-c2cc(C)cc(C)c2OCc2ccc3c(c2)CCN(C2CCOCC2)C3)n1 [Compound 181] | 110 (≈ 193 µM) | 87 (≈ 153 µM) | 88 (≈ 155 µM)
COc1c(C(=O)O)cnn1-c1cccc(-c2cccc(C)c2OCc2ccc3c(c2C)CCN(CC2(C)COC2)C3)n1 [Compound 28] | 110 (≈ 193 µM) | 83 (≈ 146 µM) | 90 (≈ 158 µM)
COc1c(C(=O)O)cnn1-c1cccc(-c2cccc(C)c2OCc2cc(F)c3c(c2)CCN([C@H]2CCOC2)C3)n1 [Compound 254] | 100 (≈ 179 µM) | 64 (≈ 115 µM) | 80 (≈ 143 µM)
COc1c(C(=O)O)cnn1-c1cccc(-c2cccc(C)c2OCc2ccc3c(c2F)CCN(C[C@@H]2COCCO2)C3)n1 [Compound 231] | 120 (≈ 204 µM) | 92 (≈ 156 µM) | 87 (≈ 148 µM)
COc1c(C(=O)O)cnn1-c1cccc(-c2cccc(C)c2OCc2ccc3c(c2)C(C)(C)CN(C2CCCOC2)C3)n1 (stereo not drawn) [Compound 218] | 120 (≈ 206 µM) | 85 (≈ 146 µM) | 75 (≈ 129 µM)
COCC(C)N1CCc2cc(COc3c(C)cccc3-c3cccc(-n4ncc(C(=O)O)c4OC)n3)ccc2C1 (stereo not drawn) [Compound 23] | 99 (≈ 182 µM) | 79 (≈ 146 µM) | 82 (≈ 151 µM)
COc1c(C(=O)O)cnn1-c1cccc(-c2cccc(C)c2OCc2cc(C)c3c(c2)CCN(C2COC2)C3)n1 [Compound 186] | 110 (≈ 203 µM) | 83 (≈ 154 µM) | 99 (≈ 183 µM)
COc1c(C(=O)O)cnn1-c1cccc(-c2cccc(C)c2OCc2ccc3c(c2C)CCN(C[C@H]2CCCCO2)C3)n1 [Compound 199] | 120 (≈ 206 µM) | 96 (≈ 165 µM) | 92 (≈ 158 µM)
COc1c(C(=O)O)cnn1-c1cccc(-c2cccc(C)c2OCc2cc(C)c3c(c2)CCN(C2CCOC2)C3)n1 (stereo not drawn) [Compound 242] | 110 (≈ 198 µM) | 79 (≈ 142 µM) | 78 (≈ 141 µM)
COc1ccc(OCc2ccc3c(c2C)CCN(C2CCOCC2)C3)c(-c2cccc(-n3ncc(C(=O)O)c3OC)n2)c1 [Compound 182] | 110 (≈ 188 µM) | 81 (≈ 139 µM) | 81 (≈ 139 µM)
COc1c(C(=O)O)cnn1-c1cccc(-c2cccc(C)c2OCc2ccc3c(c2)CCN(C[C@@H]2CCOC2)C3)n1 [Compound 188] | 89 (≈ 160 µM) | 77 (≈ 139 µM) | 73 (≈ 132 µM)
COc1c(C(=O)O)cnn1-c1cccc(-c2cccc(C)c2OCc2cc(C#N)c3c(c2)CCN(C2CCOCC2)C3)n1 [Compound 250] | 110 (≈ 190 µM) | 81 (≈ 140 µM) | 86 (≈ 148 µM)
COc1c(C(=O)O)cnn1-c1cccc(-c2cccc(C)c2OCc2ccc3c(c2Cl)CCN(C2CCC2)C3)n1 [Compound 20] | 95 (≈ 170 µM) | 72 (≈ 129 µM) | 68 (≈ 122 µM)
COc1c(C(=O)O)cnn1-c1cccc(-c2ccccc2OCc2ccc3c(c2)CCN(C2CCOCC2)C3)n1 [Compound 209] | 110 (≈ 203 µM) | 81 (≈ 150 µM) | 84 (≈ 155 µM)
COc1c(C(=O)O)cnn1-c1cccc(-c2cccc(C)c2OCc2ccc3c(c2C)CCN(CC2CC(F)(F)C2)C3)n1 [Compound 29] | 110 (≈ 187 µM) | 79 (≈ 134 µM) | 78 (≈ 133 µM)
COc1c(C(=O)O)cnn1-c1cccc(-c2cccc(C)c2OCc2cc(C)c3c(c2)CCN(C2CCCOC2)C3)n1 (stereo not drawn) [Compound 237] | 94 (≈ 165 µM) | 55 (≈ 96.7 µM) | 52 (≈ 91.4 µM)
COc1c(C(=O)O)cnn1-c1cccc(-c2cccc(C)c2OCc2ccc3c(c2)C(C)(C)CN(C2CCOC2)C3)n1 (stereo not drawn) [Compound 217] | 97 (≈ 171 µM) | 73 (≈ 128 µM) | 69 (≈ 121 µM)
COc1c(C(=O)O)cnn1-c1cccc(-c2cccc(C)c2OCc2ccc3c(c2Cl)CCN(C2CCOCC2)C3)n1 [Compound 18] | 110 (≈ 187 µM) | 86 (≈ 146 µM) | 90 (≈ 153 µM)
COc1c(C(=O)O)cnn1-c1cccc(-c2cccc(C)c2OCc2ccc3c(c2)CCN(C2CCOC2)C3)n1 (stereo not drawn) [Compound 15] | 110 (≈ 203 µM) | 88 (≈ 163 µM) | 90 (≈ 166 µM)
CCOc1c(C(=O)O)cnn1-c1cccc(-c2cccc(C)c2OCc2cc(C)c3c(c2)CCN([C@@H]2CCCOC2)C3)n1 [Compound 195] | 110 (≈ 189 µM) | 83 (≈ 142 µM) | 80 (≈ 137 µM)

Other lines, results leading:

solubility at 24 h (pH 2.2, aqueous buffer) [µg/mL] | solubility at 24 h (pH 4.5, aqueous buffer) [µg/mL] | solubility at 24 h (pH 6.8, aqueous buffer) [µg/mL] | SMILES
90 (≈ 154 µM) | 73 (≈ 125 µM) | 77 (≈ 132 µM) | CCOc1c(C(=O)O)cnn1-c1cccc(-c2cccc(C)c2OCc2ccc3c(c2C)CCN([C@@H]2CCOC2)CC3)n1 [Compound 227]
100 (≈ 168 µM) | 83 (≈ 139 µM) | 88 (≈ 147 µM) | CCOc1c(C(=O)O)cnn1-c1cccc(-c2cccc(C)c2OCc2ccc3c(c2C)CCN(C[C@@H]2CCCO2)CC3)n1 [Compound 235]
98 (≈ 164 µM) | 73 (≈ 122 µM) | 86 (≈ 144 µM) | CCOc1c(C(=O)O)cnn1-c1cccc(-c2cccc(C)c2OCc2ccc3c(c2C)CCN(C[C@H]2CCCO2)CC3)n1 [Compound 233]
85 (≈ 153 µM) | 66 (≈ 119 µM) | 72 (≈ 130 µM) | CCOc1c(C(=O)O)cnn1-c1cccc(-c2cccc(C)c2OCc2ccc3c(c2)CCN(C2COC2)CC3)n1 [Compound 213]
82 (≈ 144 µM) | 68 (≈ 120 µM) | 73 (≈ 128 µM) | COc1c(C(=O)O)cnn1-c1cccc(-c2cccc(C)c2OCc2ccc3c(c2C)CCN([C@@H]2CCOC2)CC3)n1 [Compound 207]
95 (≈ 155 µM) | 82 (≈ 134 µM) | 78 (≈ 127 µM) | CCOc1c(C(=O)O)cnn1-c1cccc(-c2cccc(C)c2OCc2ccc3c(c2C)CCN(C[C@@H]2COCCO2)CC3)n1 [Compound 211]
0.68 (≈ 1.14 µM) | 2.5 (≈ 4.19 µM) | 78 (≈ 131 µM) | CCOc1c(C(=O)O)cnn1-c1cccc(-c2cccc(C)c2OCc2ccc3c(c2C)CCN(C2CCOCC2)C3=O)n1 [Compound 194]
100 (≈ 167 µM) | 77 (≈ 129 µM) | 86 (≈ 144 µM) | CCOc1c(C(=O)O)cnn1-c1cccc(-c2cccc(C)c2OCc2ccc3c(c2OC)CCN(C2CCOCC2)C3)n1 [Compound 220]
100 (≈ 168 µM) | 83 (≈ 139 µM) | 87 (≈ 146 µM) | CCOc1c(C(=O)O)cnn1-c1cccc(-c2cccc(C)c2OCc2ccc3c(c2C)CCN(CC2(C)COC2)CC3)n1 [Compound 190]
95 (≈ 163 µM) | 78 (≈ 134 µM) | 81 (≈ 139 µM) | CCOc1c(C(=O)O)cnn1-c1cccc(-c2cccc(C)c2OCc2ccc3c(c2C)CCN([C@H]2CCOC2)CC3)n1 [Compound 225]
92 (≈ 150 µM) | 79 (≈ 129 µM) | 75 (≈ 122 µM) | CCOc1c(C(=O)O)cnn1-c1cccc(-c2cccc(C)c2OCc2ccc3c(c2C)CCN(C[C@H]2COCCO2)CC3)n1 [Compound 212]
94 (≈ 168 µM) | 73 (≈ 131 µM) | 62 (≈ 111 µM) | COc1c(C(=O)O)cnn1-c1cccc(-c2cccc(C)c2OCc2ccc3c(c2F)CCN([C@@H]2CCOC2)C3)n1 [Compound 252]
93 (≈ 156 µM) | 74 (≈ 124 µM) | 63 (≈ 106 µM) | CCOc1c(C(=O)O)cnn1-c1cccc(-c2cccc(C)c2OCc2ccc3c(c2C)CCN(C[C@H]2CCCCO2)C3)n1 [Compound 232]
81 (≈ 135 µM) | 70 (≈ 117 µM) | 72 (≈ 120 µM) | COc1c(C(=O)O)cnn1-c1cccc(-c2cccc(C)c2OCc2ccc3c(c2C)CCN(C[C@H]2COCCO2)CC3)n1 [Compound 203]
86 (≈ 141 µM) | 70 (≈ 115 µM) | 76 (≈ 124 µM) | CCOc1c(C(=O)O)cnn1-c1cccc(-c2cccc(C)c2OCc2ccc3c(c2C)CCN(C[C@@H]2CCCCO2)CC3)n1 [Compound 215]
95 (≈ 176 µM) | 71 (≈ 131 µM) | 81 (≈ 150 µM) | COc1c(C(=O)O)cnn1-c1cccc(-c2cccc(C)c2OCc2ccc3c(c2C)CCN(C2COC2)C3)n1 [Compound 16]
110 (≈ 184 µM) | 96 (≈ 161 µM) | 83 (≈ 139 µM) | CCOc1c(C(=O)O)cnn1-c1cccc(-c2cccc(C)c2OCc2ccc3c(c2C)CCN(C[C@@H]2CCCCO2)C3)n1 [Compound 236]
